From patent publication US11440870B2, “Cannabidiolic acid esters compositions and uses thereof” (Yissum Research Development Company of the Hebrew …, priority 2017, dated 2022)

Tests used:
[1] = tested on: contextually elicited conditioned gaping (anticipatory nausea) in rats; test: Anticipatory nausea: contextually elicited conditioned gaping in rats; type: in vivo, male Sprague-Dawley rats; settings: for Contextually elicited conditioned gaping compared to VEH controls: 45 min before test
Text: (§1) Animal procedures complied with the Canadian Council on Animal Care, and the protocols were approved by the Institutional Animal Care Committee at University of Guelph. Animal studies are reported in compliance with the ARRIVE guidelines (Kilkenny et al., 2010; McGrath and Lilley, 2015). A total of 200 näive male Sprague-Dawley rats, obtained from Charles River Laboratories (St Constant, Quebec), were used for all in vivo studies. Rats were individually housed (for acute nausea studies) or pair-housed [for anticipatory nausea and light-dark emergence studies] in home cages made of opaque white plastic (48×26×20 cm), containing bed-o-cob bedding from Harlan Laboratories, Inc. (Mississauga, Ontario), a brown paper towel, and Crinkl'Nest™ from The Andersons, Inc. (Maumee, Ohio). Additionally, in the home cage, rats were provided with a soft white paper container that was 14 cm long and 12 cm in diameter. All rats were subjected to an ambient temperature of 21° C. and a 12/12 h light-dark schedule (lights off at 07:00 h) and maintained on food (Highland Rat Chow [8640]) and water ad libitum. For the acute and anticipatory nausea studies, their body weights ranged from 263 to 329 g on the day of conditioning. For the light-dark emergence studies, their body weights ranged from 320 to 387 g on the day of test.
For in vivo experiment 2, contextually elicited conditioned gaping (a model of anticipatory nausea) was measured using a distinctive conditioning chamber made of opaque black Plexiglass (22.5×26×20 cm) with an opaque lid that sat on a table with a clear glass top. A mirror beneath the chamber at a 45° angle facilitated viewing of the ventral surface of the rat to observe orofacial responses. The conditioning chamber was in a dark room next to a 25 W light source. A video camera that was fire-wired into a computer was focused on the mirror to record each rat's orofacial reactions during the 5 min test trial. The video tapes were later scored using ‘The Observer’ software. To assess activity, an activity chamber made of white Plexiglas (60×25×25 cm) was used, illuminated by a red light found in a different room that the contextual chamber was used to create a different context from the AN chamber. The activity of each rat was captured by video camera and sent to the Ethovision software program (Noldus, Inc., NL) to measure distance (cm) travelled.
To compare the potential of HU-580 and CBDA to reduce anticipatory nausea, the contextually elicited conditioned gaping paradigm was used (e.g. Limebeer et al., 2010; Rock et al., 2014). Rats underwent four conditioning trials during which the distinctive context was paired with 127 mg·kg^−1 LiCl. On each trial, rats were injected with LiCl and then immediately placed in the conditioning chamber for 30 min. This procedure was repeated four times with a 48 h interval between conditioning trials. For the test trial, rats were randomly assigned to one of five treatment groups (n=6 per group): VEH, 0.1 μg·kg^−1 CBDA, 0.1 μg·kg^−1 HU-580, 0.01 μg·kg^−1 CBDA, […] HU-580. Pretreatments were injected 45 min before the rats were given an saline injection (20 mL·kg^−1 i.p.) and individually placed in the conditioning (contextual) chamber for 5 min, and orofacial responses were video recorded. To investigate the mechanism of action of HU-580, two additional groups of rats were administered 0.1 mg·kg^−1 WAY-VEH (n=8), 0.1 mg·kg^−1 WAY-0.1 μg·kg^−1 HU-580 (n=8). VEH or WAY100635 were administered 15 min before […] or VEH. The video tapes from the test trial were scored by an observer blind to the experimental conditions using ‘The Observer’ for the behaviors of gaping (large openings of the mouth and jaw, with lower incisors exposed). […]

[2] = tested on: LiCl-induced conditioned gaping (acute nausea) in rats; test: Acute nausea: LiCl-induced conditioned gaping (taste reactivity test) in rats; type: in vivo, male Sprague-Dawley rats; settings: for LiCl-induced conditioned gaping relative to vehicle: 45 min before conditioning; for Lowest effective dose for suppression of acute nausea-induced conditioned gaping: i.p., rats (FIG. 3)
Text: as §1
For the studies of acute nausea (in vivo experiment 1), rats were placed in taste reactivity (Grill and Norgren, 1978) chambers with their cannula attached to an infusion pump (Model KDS100, KD Scientific, Holliston, Mass., USA) for fluid delivery. The taste reactivity chambers were made of clear Plexiglas (22.5×26×20 cm) that sat on a table with a clear glass top. A mirror beneath the chamber at a 45° angle facilitated viewing of the ventral surface of the rat to observe orofacial responses. The conditioning chamber was in a dark room next to a 25 W light source. A video camera (Sony DCR-HC48, Henry's Cameras, Waterloo, ON, Canada) fire-wired into a computer was focused on the mirror and used to record each rat's orofacial reactions during the 2 min taste reactivity test. The video tapes were later scored using ‘The Observer’ (Noldus Information Technology Inc., Leesburg, Va., USA) software.
All rats were surgically implanted with an intraoral cannula according the procedures described by Limebeer et al. (2010). On the day of surgery, the rats were injected with an antibiotic (Derapin: […] s.c.; Pfizer Animal Health, Pfizer Canada Inc, Kirkland, Quebec, Canada) 30 min prior to being anaesthetized with isoflurane (4-5% induction, 1.5% maintenance in O2). Surgical plane anesthesia, as indicated by absence of the hind limb withdrawal reflex and defined by the Canadian Council of Animal Care, was induced before any surgery began, and was adjusted as necessary. Once sufficient anesthesia had been induced, a 2 cm^2 section of skin was shaved at the back of the neck at the level of the scapula. The skin was prepared by cleaning with soap (Bactistat; Ecolab, St. Paul, Minn., USA) and wiping with 70% isopropyl alcohol followed by 7% Betadine solution (Purdue Products L.P., Stamford, Conn., USA). Each rat was then administered a 5 mg·kg^−1 injection (i.p.) of the anti-inflammatory/analgesic drug carprofen (Rimadyl; Pfizer Canada Inc., Kirkland, Quebec, Canada). A thin-walled 15-gauge stainless steel needle was inserted into the shaved area on the neck, directed subcutaneously around the ear and brought out behind the first molar inside the mouth. A 10 cm length of Intra Medic PE90 tubing (Clay Adams Brand; Becton Dickinson and Co., Sparks, Md., USA) with an inner diameter of 0.86 mm and an outer diameter of 1.27 mm was then inserted through the needle after which the needle was removed. Betadine (10%) was applied to the puncture site and three elastic discs (2 cm^2) were placed over the exposed end of the tubing and drawn to the skin at the back of the neck for the purpose of stabilizing the cannula. […]

[3] = 0.1 μg·kg−1 HU-580 i.p., WAY100635 0.1 mg·kg−1 15 min before

| SMILES | Contextually elicited conditioned gaping compared to VEH controls ([1]; 0.01 μg·kg−1 i.p.) | Contextually elicited conditioned gaping compared to VEH controls ([1]; 0.1 μg·kg−1 i.p., P<0.05) | LiCl-induced conditioned gaping relative to vehicle ([2]; 0.1 μg·kg−1 i.p.) | LiCl-induced conditioned gaping relative to vehicle ([2]; 1 μg·kg−1 i.p., P<0.05) | Lowest effective dose for suppression of acute nausea-induced conditioned gaping [2] | Suppressive effect on anticipatory nausea after 5-HT1A antagonist pretreatment [1, 3] | Dose as low as which contextually elicited conditioned gaping is suppressed ([1]; i.p., rats) | Suppressive effect on acute nausea after 5-HT1A antagonist pretreatment [2, 3] |
| --- | --- | --- | --- | --- | --- | --- | --- | --- |
| C=C(C)[C@@H]1CCC(C)=C[C@H]1c1c(O)cc(CCCCC)c(C(=O)O)c1O [CBDA, Cannabidiolic acid] | but not CBDA, suppressed contextually elicited conditioned gaping | reduced conditioned gaping | subthreshold | reduced LiCl-induced gaping responses relative to vehicle | 1 µg/kg |  |  |  |
| C=C(C)[C@@H]1CCC(C)=C[C@H]1c1c(O)cc(CCCCC)c(C(=O)OC)c1O [HU-580, Cannabidiolic Acid Methyl Ester] | gaping significantly less than VEH controls | reduced conditioned gaping | reduced LiCl-induced conditioned gaping behavior relative to vehicle | reduced LiCl-induced gaping responses relative to vehicle | 0.1 µg/kg | blocked by pretreatment with WAY100635 | 0.01 µg/kg | blocked by WAY100635 |
